Results on nine compounds are retold here after PubChem BioAssay AID1259407 (Chemical Carcinogenesis Research Information System (CCRIS), 2018).

The subject of this data set is CCRIS mutagenicity, Ames/micronucleus/aberration tests. As to the kind of experiment: CCRIS mutagenicity studies.
Setting [1] is: Test System: AMES SALMONELLA TYPHIMURIUM, Strain/Indicator: TA98, Metabolic Activation: NONE, Method: STANDARD PLATE.
Where [2] appears, read: Test System: AMES SALMONELLA TYPHIMURIUM, Strain/Indicator: TA98, Metabolic Activation: RAT, LIVER, S-9, AROCLOR 1254, Method: STANDARD PLATE.
Setting [3] is: Test System: AMES SALMONELLA TYPHIMURIUM, Strain/Indicator: TA100, Metabolic Activation: NONE, Method: STANDARD PLATE.
Setting [4] is: Test System: AMES SALMONELLA TYPHIMURIUM, Strain/Indicator: TA100, Metabolic Activation: RAT, LIVER, S-9, AROCLOR 1254, Method: STANDARD PLATE.
Setting [5] is: Test System: AMES SALMONELLA TYPHIMURIUM, Strain/Indicator: TA1535, Metabolic Activation: NONE, Method: STANDARD PLATE.
Setting [6] is: Test System: AMES SALMONELLA TYPHIMURIUM, Strain/Indicator: TA1537, Metabolic Activation: NONE, Method: STANDARD PLATE.

Activity calls are given as the source filed them. No rule for the calls is given here.

Take `Cc1ccc(OS(=O)(=O)c2cccc3cccnc23)c([N+](=O)[O-])c1`: the mutagenic call under setting [1] is “active; positive”; the mutagenic call under setting [2] is “active; positive”; the mutagenic call under setting [3] was “active; positive”; the mutagenic call under setting [4] was “active; positive”; the mutagenic call under setting [5] is “inactive; negative”; the mutagenic call (Test System: AMES SALMONELLA TYPHIMURIUM, Strain/Indicator: TA1535, Metabolic Activation: RAT, LIVER, S-9, AROCLOR 1254, Method: STANDARD PLATE) is “inactive; negative”. For the same compound, the mutagenic call runs as follows: under setting [6], “active; positive”; (Test System: AMES SALMONELLA TYPHIMURIUM, Strain/Indicator: TA1537, Metabolic Activation: RAT, LIVER, S-9, AROCLOR 1254, Method: STANDARD PLATE) “active; positive”.
Turning to `O=CC(Cl)Cl`, the mutagenic call was “inactive; negative” (Test System: CHINESE HAMSTER V-79, Strain/Indicator: V-79/OUABAIN, Metabolic Activation: NONE) and “inactive; negative” (Test System: UDS HUMAN CELLS, Strain/Indicator: EUE LINE/THY INCORP, Metabolic Activation: NONE, Method: AUTORADIOGRAPHY).
`CCC1(C)CO1` (stereo not drawn): the mutagenic call is “inactive; negative” under setting [1] and “inactive; negative” under setting [3].
As for `CCOc1ccc(N)cc1N`, the mutagenic call reads like this: (Test System: AMES SALMONELLA TYPHIMURIUM, Strain/Indicator: TA97, Metabolic Activation: RAT, LIVER, S-9, AROCLOR 1254 (4 OR 10%), Method: STANDARD PLATE) “active; positive”; (Test System: AMES SALMONELLA TYPHIMURIUM, Strain/Indicator: TA1537, Metabolic Activation: RAT, LIVER, S-9, AROCLOR 1254 (4 OR 10%), Method: STANDARD PLATE) “active; positive”; (Test System: AMES SALMONELLA TYPHIMURIUM, Strain/Indicator: TA1538, Metabolic Activation: RAT, LIVER, S-9, AROCLOR 1254 (4 OR 10%), Method: STANDARD PLATE) “active; positive”.
With `Nc1ccc(Cl)c(Cl)c1Cl`, the mutagenic call was “inactive; negative” under setting [1], “inactive; negative” under setting [2], “inactive; negative” under setting [3] and “inactive; negative” under setting [4].
For the compound `Cc1ccc(C(O)(P(=O)(O)O)P(=O)(O)O)cc1N(CCCl)CCCl`, the mutagenic call is “inactive; negative” under setting [1]; “inactive; negative” (Test System: AMES SALMONELLA TYPHIMURIUM, Strain/Indicator: TA98, Metabolic Activation: RAT, LIVER, S-9, AROCLOR, Method: STANDARD PLATE); “inactive; negative” under setting [3]; “inactive; negative” (Test System: AMES SALMONELLA TYPHIMURIUM, Strain/Indicator: TA100, Metabolic Activation: RAT, LIVER, S-9, AROCLOR, Method: STANDARD PLATE); “inactive; negative” under setting [5]; “active; positive” (Test System: AMES SALMONELLA TYPHIMURIUM, Strain/Indicator: TA1535, Metabolic Activation: RAT, LIVER, S-9, AROCLOR, Method: STANDARD PLATE). Besides, the mutagenic call reads like this: under setting [6], “inactive; negative”; (Test System: AMES SALMONELLA TYPHIMURIUM, Strain/Indicator: TA1537, Metabolic Activation: RAT, LIVER, S-9, AROCLOR, Method: STANDARD PLATE) “inactive; negative”; (Test System: AMES SALMONELLA TYPHIMURIUM, Strain/Indicator: TA1538, Metabolic Activation: NONE, Method: STANDARD PLATE) “inactive; negative”; (Test System: AMES SALMONELLA TYPHIMURIUM, Strain/Indicator: TA1538, Metabolic Activation: RAT, LIVER, S-9, AROCLOR, Method: STANDARD PLATE) “inactive; negative”.
`CN(C)CCOC(C)(c1ccccc1)c1ccccn1` (stereo not drawn): the mutagenic call is, setting by setting: (Test System: AMES SALMONELLA TYPHIMURIUM, Strain/Indicator: TA98, Metabolic Activation: HAMSTER, LIVER, S-9, AROCLOR 1254 (10%), Method: PREINCUBATION) “inactive; negative”; (Test System: AMES SALMONELLA TYPHIMURIUM, Strain/Indicator: TA98, Metabolic Activation: NONE, Method: PREINCUBATION) “inactive; negative”; (Test System: AMES SALMONELLA TYPHIMURIUM, Strain/Indicator: TA98, Metabolic Activation: RAT, LIVER, S-9, AROCLOR 1254 (10%), Method: PREINCUBATION) “inactive; negative”; (Test System: AMES SALMONELLA TYPHIMURIUM, Strain/Indicator: TA100, Metabolic Activation: HAMSTER, LIVER, S-9, AROCLOR 1254 (10%), Method: PREINCUBATION) “inactive; negative”; (Test System: AMES SALMONELLA TYPHIMURIUM, Strain/Indicator: TA100, Metabolic Activation: NONE, Method: PREINCUBATION) “inactive; negative”; (Test System: AMES SALMONELLA TYPHIMURIUM, Strain/Indicator: TA100, Metabolic Activation: RAT, LIVER, S-9, AROCLOR 1254 (10%), Method: PREINCUBATION) “inactive; negative”. The mutagenic call by setting is: (Test System: AMES SALMONELLA TYPHIMURIUM, Strain/Indicator: TA1535, Metabolic Activation: HAMSTER, LIVER, S-9, AROCLOR 1254 (10%), Method: PREINCUBATION) “inactive; negative”; (Test System: AMES SALMONELLA TYPHIMURIUM, Strain/Indicator: TA1535, Metabolic Activation: NONE, Method: PREINCUBATION) “inactive; negative”; (Test System: AMES SALMONELLA TYPHIMURIUM, Strain/Indicator: TA1535, Metabolic Activation: RAT, LIVER, S-9, AROCLOR 1254 (10%), Method: PREINCUBATION) “inactive; negative”; (Test System: AMES SALMONELLA TYPHIMURIUM, Strain/Indicator: TA1537, Metabolic Activation: HAMSTER, LIVER, S-9, AROCLOR 1254 (10%), Method: PREINCUBATION) “inactive; negative”; (Test System: AMES SALMONELLA TYPHIMURIUM, Strain/Indicator: TA1537, Metabolic Activation: NONE, Method: PREINCUBATION) “inactive; negative”; (Test System: AMES SALMONELLA TYPHIMURIUM, Strain/Indicator: TA1537, Metabolic Activation: RAT, LIVER, S-9, AROCLOR 1254 (10%), Method: PREINCUBATION) “inactive; negative”.
Take `CN(C)CCNC(=O)c1cccc2c1Nc1ccccc1O2`: under setting [6], the mutagenic call was “active; positive”.
Turning to `CN(C)CCNC(=O)c1ccc2c(N)c3ccccc3nc2c1`, the mutagenic call under setting [6] is “inactive; negative”.
